Where “and” joins values, the source holds several entries; their conditions need not be identical. Equal entries are not always repeated.
Legend:
MMP9 = MMP9 (Homo sapiens, UniProt P14780); experiment: MMP assay; type: biochemical; settings: 10µM
MMP13 = MMP13 (Homo sapiens, UniProt P45452); experiment: MMP assay; type: biochemical; settings: 10µM
MMP7 = target: T1, MMP7 (Homo sapiens, UniProt P09237); experiment: MMP assay; type: biochemical; settings: 10µM
T1 sequence (P09237 95-267): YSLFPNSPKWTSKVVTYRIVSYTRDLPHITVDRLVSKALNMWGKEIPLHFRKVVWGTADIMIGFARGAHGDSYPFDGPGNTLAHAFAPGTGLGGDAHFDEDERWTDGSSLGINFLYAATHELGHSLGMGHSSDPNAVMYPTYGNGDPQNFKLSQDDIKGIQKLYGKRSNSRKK

MMP1 = target: T2, MMP1 (Homo sapiens, UniProt P03956); experiment: MMP assay; type: biochemical; settings: 10µM
T2 sequence (P03956 100-269 limits assumed): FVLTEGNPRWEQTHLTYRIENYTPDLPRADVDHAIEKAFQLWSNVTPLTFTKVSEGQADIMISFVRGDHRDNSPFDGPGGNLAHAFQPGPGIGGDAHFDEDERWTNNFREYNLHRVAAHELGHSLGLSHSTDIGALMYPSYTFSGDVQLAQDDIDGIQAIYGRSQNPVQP

[1] = tested on: tubulin acetylation (HDAC6 inhibition) in LNCaP cell line; experiment: Western blot analysis for tubulin acetylation; type: cell-based; settings: LNCaP cells, 4 hours, 20 µM and IC50 concentration
MMP14 = MMP14 (Homo sapiens, UniProt P50281); experiment: MMP assay; type: biochemical; settings: 10µM
MMP2 = MMP2 (Homo sapiens, UniProt P08253); experiment: MMP assay; type: biochemical; settings: 10µM
MMP2, sequence (P08253 110-446 limits assumed): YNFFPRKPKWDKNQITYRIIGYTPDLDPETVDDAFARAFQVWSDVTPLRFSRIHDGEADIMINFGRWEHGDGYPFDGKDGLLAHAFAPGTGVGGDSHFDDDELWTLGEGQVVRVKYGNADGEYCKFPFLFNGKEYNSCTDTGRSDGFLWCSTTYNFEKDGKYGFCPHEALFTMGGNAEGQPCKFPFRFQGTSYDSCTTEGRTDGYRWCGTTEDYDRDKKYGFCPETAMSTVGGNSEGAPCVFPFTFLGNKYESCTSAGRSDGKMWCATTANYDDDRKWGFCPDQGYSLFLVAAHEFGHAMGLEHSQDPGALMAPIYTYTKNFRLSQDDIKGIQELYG

MMP3 = MMP3 (Homo sapiens, UniProt P08254); experiment: MMP assay; type: biochemical; settings: 10µM
MMP3, sequence (P08254 100-272 limits assumed): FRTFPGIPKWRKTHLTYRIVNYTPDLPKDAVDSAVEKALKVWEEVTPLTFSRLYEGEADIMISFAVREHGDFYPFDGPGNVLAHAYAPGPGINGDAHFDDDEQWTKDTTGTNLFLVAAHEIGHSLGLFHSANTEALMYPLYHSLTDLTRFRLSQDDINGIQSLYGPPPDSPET

Jurkat J.γ = experiment: Cell viability assay; type: cell-based
HDAC1 = HDAC1 (Homo sapiens, UniProt Q13547); experiment: HDAC inhibition by SAMDI mass spectrometry, HDAC1; type: biochemical
HDAC1, sequence (Q13547 whole entry): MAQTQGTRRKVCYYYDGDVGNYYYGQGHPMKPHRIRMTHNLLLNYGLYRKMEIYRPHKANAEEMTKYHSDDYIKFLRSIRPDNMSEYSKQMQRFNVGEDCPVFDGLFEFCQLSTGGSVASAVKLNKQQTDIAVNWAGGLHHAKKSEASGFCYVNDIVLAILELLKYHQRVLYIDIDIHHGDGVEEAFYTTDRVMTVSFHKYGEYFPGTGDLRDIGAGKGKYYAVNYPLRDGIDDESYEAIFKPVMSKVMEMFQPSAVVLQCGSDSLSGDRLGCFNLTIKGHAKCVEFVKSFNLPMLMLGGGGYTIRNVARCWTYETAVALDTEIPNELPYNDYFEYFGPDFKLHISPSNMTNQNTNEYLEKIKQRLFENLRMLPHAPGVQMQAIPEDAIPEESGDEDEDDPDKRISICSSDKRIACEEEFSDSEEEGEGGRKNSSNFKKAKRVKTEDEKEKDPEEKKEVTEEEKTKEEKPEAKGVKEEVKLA

LNCaP = experiment: Cell viability assay; type: cell-based
Jurkat = experiment: Cell viability assay; type: cell-based
DU-145 = experiment: Cell viability assay; type: cell-based; settings: for Fold less cytotoxic than 14e, DU145: compared with 14e
HDAC6 = target: T3, HDAC6 (Homo sapiens, UniProt Q9UBN7); experiment: HDAC inhibition by SAMDI mass spectrometry, HDAC6; type: biochemical
T3 sequence (Q9UBN7 1-1215): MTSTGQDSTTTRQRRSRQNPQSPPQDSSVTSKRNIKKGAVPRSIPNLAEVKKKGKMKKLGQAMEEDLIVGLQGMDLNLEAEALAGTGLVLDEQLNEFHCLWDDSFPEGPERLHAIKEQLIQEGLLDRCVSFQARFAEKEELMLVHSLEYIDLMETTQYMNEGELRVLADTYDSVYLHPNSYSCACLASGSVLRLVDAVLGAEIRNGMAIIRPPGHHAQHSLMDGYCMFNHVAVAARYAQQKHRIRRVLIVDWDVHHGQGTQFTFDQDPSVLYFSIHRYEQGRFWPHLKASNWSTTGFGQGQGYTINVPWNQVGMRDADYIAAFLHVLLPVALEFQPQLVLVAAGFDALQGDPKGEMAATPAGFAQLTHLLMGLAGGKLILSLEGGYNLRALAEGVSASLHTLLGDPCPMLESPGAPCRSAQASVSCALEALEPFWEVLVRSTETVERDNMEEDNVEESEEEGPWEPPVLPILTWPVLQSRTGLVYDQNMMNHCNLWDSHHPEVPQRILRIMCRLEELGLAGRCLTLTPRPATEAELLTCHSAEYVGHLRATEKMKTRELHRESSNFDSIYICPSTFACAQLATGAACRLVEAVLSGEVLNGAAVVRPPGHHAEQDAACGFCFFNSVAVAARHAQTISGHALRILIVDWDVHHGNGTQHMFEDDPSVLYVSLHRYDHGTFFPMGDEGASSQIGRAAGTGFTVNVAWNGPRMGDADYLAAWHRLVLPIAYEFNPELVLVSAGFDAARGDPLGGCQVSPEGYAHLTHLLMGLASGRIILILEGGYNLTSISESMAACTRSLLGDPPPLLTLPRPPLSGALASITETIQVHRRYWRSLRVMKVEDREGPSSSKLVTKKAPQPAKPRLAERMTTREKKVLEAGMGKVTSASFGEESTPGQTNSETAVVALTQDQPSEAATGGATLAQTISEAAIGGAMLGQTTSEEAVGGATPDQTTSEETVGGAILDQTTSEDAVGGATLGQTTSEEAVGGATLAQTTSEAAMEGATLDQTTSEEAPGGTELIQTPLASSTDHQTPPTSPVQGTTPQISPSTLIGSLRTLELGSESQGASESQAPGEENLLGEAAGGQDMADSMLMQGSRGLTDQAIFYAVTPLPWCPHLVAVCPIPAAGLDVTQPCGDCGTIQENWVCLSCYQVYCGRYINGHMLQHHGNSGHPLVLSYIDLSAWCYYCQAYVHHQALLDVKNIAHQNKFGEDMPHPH

MMP9, sequence (P14780 107-444 limits assumed): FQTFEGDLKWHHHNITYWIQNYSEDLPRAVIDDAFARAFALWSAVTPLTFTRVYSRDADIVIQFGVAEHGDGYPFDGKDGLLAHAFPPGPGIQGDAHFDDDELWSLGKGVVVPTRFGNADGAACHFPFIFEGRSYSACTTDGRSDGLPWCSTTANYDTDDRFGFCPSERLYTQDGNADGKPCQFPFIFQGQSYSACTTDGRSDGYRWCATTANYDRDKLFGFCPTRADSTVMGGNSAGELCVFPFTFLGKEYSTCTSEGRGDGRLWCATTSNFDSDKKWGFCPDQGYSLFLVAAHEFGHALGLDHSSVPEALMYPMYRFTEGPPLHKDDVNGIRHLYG

SMILES: Oc1cccn(CCCCCn2cc(-c3ccccc3)nn2)c1=S [Compound 10d, 1-Phenyltriazolylpentyl-3-hydroxypyridin-2-thione]
- Effect on MMP9 activity (MMP9): inactive
- Effect on MMP13 activity (MMP13): halved
- Effect on MMP7 activity (MMP7): inactive
- Effect on MMP1 activity (MMP1): inactive
- Tubulin acetylation level (Western blot) [1]: increased tubulin acetylation but to a lesser extent than SAHA
- Effect on MMP14 activity (MMP14): inactive
- Effect on MMP2 activity (MMP2): inactive
- Effect on MMP3 activity (MMP3): inactive
- IC50 (Jurkat J.γ; Homo sapiens, Jurkat, 72 h, read-out: Cellular IC50 Jurkat J.γ, 72 hours, MTS): 1000 nM
- HDAC1 inhibition, in words (HDAC1): inactive

SMILES: Oc1cccn(CCCCCCCn2cc(-c3ccccc3)nn2)c1=S [Compound 10f, 1-Phenyltriazolylheptyl-3-hydroxypyridin-2-thione]
- Fold less cytotoxic than 14e, LNCaP (LNCaP; compared with 14e): 3 fold
- Fold less cytotoxic than 10d, LNCaP (LNCaP; compared with 10d): 2 fold
- Fold less cytotoxic than 14e, wild type Jurkat (Jurkat; relative to 14e): 3 fold
- Fold less cytotoxic than 10d, wild type Jurkat (Jurkat; relative to 10d): 3 fold
- Fold less cytotoxic than 14e, DU145 (DU-145): 3 fold
- Fold less cytotoxic than 10d, DU145 (DU-145; compared with 10d): 2 fold

SMILES: Cc1ccccc1-c1cn(CCCCCn2cccc(O)c2=S)nn1 [Compound 14c, 1-(2-Tolyl)triazolylpentyl-3-hydroxypyridin-2-thione]
- Fold less cytotoxic than 14e, DU145 (DU-145): 2 fold

SMILES: N#Cc1cccc(-c2cn(CCCCCn3cccc(O)c3=S)nn2)c1 [Compound 14e, 1-(3-Benzonitrile)triazolylpentyl-3-hydroxypyridin-2-thione]
- Effect on MMP9 activity (MMP9): inactive
- Effect on MMP13 activity (MMP13): halved
- Fold more potent than 10d, LNCaP (LNCaP; relative to 10d): about 2 fold
- Effect on MMP7 activity (MMP7): inactive
- Effect on MMP1 activity (MMP1): inactive
- Tubulin acetylation level (Western blot) [1]: increased tubulin acetylation but to a lesser extent than SAHA
- Effect on MMP14 activity (MMP14): inactive
- Fold more potent than 10d, DU145 (DU-145; relative to 10d): about 2 fold
- Effect on MMP2 activity (MMP2): inactive
- HDAC6 potency, fold more effective than 14b (HDAC6; relative to 14b): 3 fold
- HDAC6 potency, fold more effective than 10d (HDAC6; relative to 10d): 2.5 fold and 3 fold
- Effect on MMP3 activity (MMP3): inactive
- HDAC1 inhibition, in words (HDAC1): inactive

SMILES: O=C(CCCCCCC(=O)Nc1ccccc1)NO [SAHA, suberoylanilide hydroxamic acid]
- Activity against Jurkat Jγ, in words (Jurkat J.γ): inactive

SMILES: CN1CCc2c(c3ccccc3n2Cc2ccc(C(=O)NO)cc2)C1 [Tubastatin A, reference compound]
- Fold less potent than 10d and 14e, LNCaP (LNCaP; relative to 10d and 14e): 2 to 3 fold
- Activity against Jurkat Jγ, in words (Jurkat J.γ): inactive

Reference: PMC4029159 (Journal of medicinal chemistry, 2013)
